Assay results: PMC3619390 (Journal of medicinal chemistry, 2012)
Each block holds one compound with its values, some of them ahead of it.

Experiments:
human cells [1] = conditions: requires long (>10 hour) pre-incubation of cells with compound; cited from earlier work
human RAD51 protein [2] = target: T1, human RAD51 protein (Homo sapiens, UniProt Q06609); assay: FP-based DNA binding assay; conditions: compound 59 μM, 0.23 μM RAD51 (Figure 2B)
T1 sequence (Q06609 1-339): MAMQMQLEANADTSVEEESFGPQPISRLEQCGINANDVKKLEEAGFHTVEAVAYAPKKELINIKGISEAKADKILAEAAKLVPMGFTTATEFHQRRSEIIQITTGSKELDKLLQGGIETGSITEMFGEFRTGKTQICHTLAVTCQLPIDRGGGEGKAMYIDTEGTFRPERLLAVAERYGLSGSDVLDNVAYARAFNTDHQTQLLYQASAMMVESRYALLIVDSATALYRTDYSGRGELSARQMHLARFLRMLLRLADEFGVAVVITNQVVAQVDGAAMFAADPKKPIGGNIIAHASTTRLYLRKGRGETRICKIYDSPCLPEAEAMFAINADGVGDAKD

HEK293 cells = assay: Sensitization of cells to MMC; assay type: cell-based, human; conditions: HEK293, varying MMC 24 hours then compound 24 hours (Figure 4)
[3] = test system: HR repair in HEK293 cells; assay: HR repair efficiency, DR-GFP reporter; assay type: cell-based, human; conditions: 24 hours
[4] = test system: single-strand annealing (SSA) in HEK293 cells; assay: SSA repair efficiency, SA-GFP reporter; assay type: cell-based, human; conditions: 24 hours
human RAD51 protein [5] = target: T1, human RAD51 protein; assay: DNA binding competition; conditions: 10 μM compound prior to washing (Figure 2C)
human cells [6] = conditions: cited from earlier work
[7] = Glutathione stability / reactivity experiment; assay type: physicochemical; conditions: 37 °C, DMSO, five-fold molar excess of glutathione, HPLC, up to 24 hours
[8] = 60 μM, compared with 1 at 20 μM

SMILES: O=c1c2ccccc2nc(/C=C/c2cccnc2)n1Cc1ccccc1 [B02]
- sensitization of cells to cross-linking chemotherapeutic drugs (human cells [1]): does successfully sensitize cells

- time dependence of inhibition of RAD51 DNA binding activity (human RAD51 protein [2]): time-dependent
- RAD51 DNA binding activity after compound treatment on beads and washing (human RAD51 protein [5]): significantly inactivated
SMILES: O=C1C(Cl)=C(N2CCOCC2)C(=O)N1c1ccc(Cl)c(Cl)c1 [compound 1]
- sensitization of cells to MMC (HEK293 cells): significant sensitization of cells
- effect on HR efficiency ([3]; 20 μM): inhibition of HR
- effect on SSA efficiency ([4]; 20 μM): stimulation of SSA

SMILES: C[C@@]12CCC(=O)c3coc(c31)C(=O)c1cc3c(cc12)C(=O)C=CC3=O [halenaquinone]
- sensitization of cells to ionizing radiation (human cells [6]): not capable of sensitizing cells to ionizing radiation

- reactivity with glutathione [7]: no reactivity
SMILES: COc1ccc(C2=C(N3CCOCC3)C(=O)N(c3ccc(Cl)c(Cl)c3)C2=O)cc1 [7a, 1-(3,4-dichlorophenyl)-3-(4-methoxyphenyl)-4-morpholino-1H-pyrrole-2,5-dione]
- time dependence of inhibition of RAD51 DNA binding activity (human RAD51 protein [2]): did not observe any time-dependent increase
- sensitization of cells to MMC (HEK293 cells): significant sensitization of cells
- effect on HR efficiency [3, 8]: very similar effects
- effect on SSA efficiency [4, 8]: very similar effects
